According to article PMC3264577, “RINL, Guanine Nucleotide Exchange Factor Rab5-Subfamily, Is Involved in the EphA8-Degradation Pathway with Odin” (PLoS ONE, 2012):

T1: Rab21 (Homo sapiens, UniProt Q9UL25)
T1 sequence (Q9UL25 1-225 limits assumed): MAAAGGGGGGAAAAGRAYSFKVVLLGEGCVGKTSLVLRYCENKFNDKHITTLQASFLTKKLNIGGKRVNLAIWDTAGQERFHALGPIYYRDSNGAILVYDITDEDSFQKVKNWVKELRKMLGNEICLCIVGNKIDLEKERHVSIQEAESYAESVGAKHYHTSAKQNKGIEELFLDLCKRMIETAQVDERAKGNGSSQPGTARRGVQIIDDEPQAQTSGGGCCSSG

T2: Rab5b (Homo sapiens, UniProt P61020)
T2 construct: GST fusion from E. coli (in vitro); myc-tagged in HEK293T (cell assay)
T2 sequence (P61020 1-215): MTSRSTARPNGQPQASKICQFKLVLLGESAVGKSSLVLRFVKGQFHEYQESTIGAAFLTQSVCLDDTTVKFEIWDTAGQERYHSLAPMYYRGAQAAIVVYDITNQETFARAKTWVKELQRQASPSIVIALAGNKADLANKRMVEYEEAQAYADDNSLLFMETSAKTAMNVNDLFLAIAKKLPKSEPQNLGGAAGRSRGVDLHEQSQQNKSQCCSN

T3: Rab3a (Homo sapiens, UniProt P20336)
T3 construct: myc-tagged, expressed in HEK293T, immunoprecipitated
T3 sequence (P20336 1-220): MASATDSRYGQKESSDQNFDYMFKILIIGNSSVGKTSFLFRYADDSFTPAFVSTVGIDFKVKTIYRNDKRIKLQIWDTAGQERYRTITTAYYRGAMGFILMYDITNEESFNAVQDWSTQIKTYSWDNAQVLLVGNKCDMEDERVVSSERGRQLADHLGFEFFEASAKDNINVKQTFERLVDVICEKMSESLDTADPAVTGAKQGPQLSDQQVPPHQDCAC

T4: Rab22 (Homo sapiens, UniProt Q9UL26)
T4 sequence (Q9UL26 1-194): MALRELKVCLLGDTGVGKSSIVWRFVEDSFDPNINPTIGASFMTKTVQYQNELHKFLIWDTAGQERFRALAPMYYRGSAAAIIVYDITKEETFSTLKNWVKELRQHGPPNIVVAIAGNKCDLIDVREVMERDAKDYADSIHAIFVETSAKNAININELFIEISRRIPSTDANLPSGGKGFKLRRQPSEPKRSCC

T5: Rab31 (Homo sapiens, UniProt Q13636)
T5 sequence (Q13636 1-195): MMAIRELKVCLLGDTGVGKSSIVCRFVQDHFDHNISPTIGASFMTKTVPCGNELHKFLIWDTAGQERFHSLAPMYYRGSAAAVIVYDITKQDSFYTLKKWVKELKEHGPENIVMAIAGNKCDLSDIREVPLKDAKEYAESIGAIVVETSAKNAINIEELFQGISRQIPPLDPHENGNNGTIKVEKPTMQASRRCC

T6: Rab11a (Homo sapiens, UniProt P62491)
T6 construct: myc-tagged, expressed in HEK293T, immunoprecipitated
T6 sequence (P62491 2-213): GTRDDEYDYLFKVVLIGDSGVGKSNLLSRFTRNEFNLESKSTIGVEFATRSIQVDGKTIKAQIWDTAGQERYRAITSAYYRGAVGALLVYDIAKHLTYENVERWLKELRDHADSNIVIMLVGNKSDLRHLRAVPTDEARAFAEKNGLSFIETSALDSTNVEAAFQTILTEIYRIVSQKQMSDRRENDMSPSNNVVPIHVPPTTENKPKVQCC

B1: FLAG-RIN3 (natural protein, UniProt Q8TB24 1-985, looked up)
chain: MIRHAGAPARGDPTGPVPVVGKGEEEEEEDGMRLCLPANPKNCLPHRRGISILEKLIKTCPVWLQLSLGQAEVARILHRVVAGMFLVRRDSSSKQLVLCVHFPSLNESSAEVLEYTIKEEKSILYLEGSALVFEDIFRLIAFYCVSRDLLPFTLRLPQAILEASSFTDLETIANLGLGFWDSSLNPPQERGKPAEPPRDRAPGFPLVSSLRPTAHDANCACEIELSVGNDRLWFVNPIFIEDCSSALPTDQPPLGNCPARPLPPTSDATSPTSRWAPRRPPPPPPVLPLQPCSPAQPPVLPALAPAPACPLPTSPPVPAPHVTPHAPGPPDHPNQPPMMTCERLPCPTAGLGPLREEAMKPGAASSPLQQVPAPPLPAKKNLPTAPPRRRVSERVSLEDQSPGMAAEGDQLSLPPQGTSDGPEDTPRESTEQGQDTEVKASDPHSMPELPRTAKQPPVPPPRKKRISRQLASTLPAPLENAELCTQAMALETPTPGPPREGQSPASQAGTQHPPAQATAHSQSSPEFKGSLASLSDSLGVSVMATDQDSYSTSSTEEELEQFSSPSVKKKPSMILGKARHRLSFASFSSMFHAFLSNNRKLYKKVVELAQDKGSYFGSLVQDYKVYSLEMMARQTSSTEMLQEIRTMMTQLKSYLLQSTELKALVDPALHSEEELEAIVESALYKCVLKPLKEAINSCLHQIHSKDGSLQQLKENQLVILATTTTDLGVTTSVPEVPMMEKILQKFTSMHKAYSPEKKISILLKTCKLIYDSMALGNPGKPYGADDFLPVLMYVLARSNLTEMLLNVEYMMELMDPALQLGEGSYYLTTTYGALEHIKSYDKITVTRQLSVEVQDSIHRWERRRTLNKARASRSSVQDFICVSYLEPEQQARTLASRADTQAQALCAQCAEKFAVERPQAHRLFVLVDGRCFQLADDALPHCIKGYLLRSEPKRDFHFVYRPLDGGGGGGGGSPPCLVVREPNFL
notes: this molecule is used for it; source: HEK293T, transfected, in lysate

What was measured:
Rab21 [1] = target: T1, Rab21; assay: […] metabolic labelling, anti-myc immunoprecipitation, TLC of bound nucleotides; assay type: cell-based; parameters: myc-tagged in HEK293T (cell assay); conditions: HEK293T cells, 4 h 32Pi; mock or GEF co-expression; labelled compound
Rab7a = target: T7, Rab7a (Homo sapiens, UniProt P51149); assay: as above; assay type: cell-based; conditions: HEK293T cells, mock or RINL co-expression, labelled compound
T7 construct: myc-tagged, expressed in HEK293T, immunoprecipitated
T7 sequence (P51149 2-207): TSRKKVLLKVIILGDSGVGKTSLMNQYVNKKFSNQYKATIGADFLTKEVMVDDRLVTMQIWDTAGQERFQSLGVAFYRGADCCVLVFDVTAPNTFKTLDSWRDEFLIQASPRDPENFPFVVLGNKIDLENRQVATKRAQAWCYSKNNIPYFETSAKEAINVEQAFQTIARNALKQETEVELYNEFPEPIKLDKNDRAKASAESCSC

Rab5b = target: T2, Rab5b; assay: as above; assay type: cell-based; conditions: HEK293T cells, 4 h 32Pi; mock or GEF co-expression; labelled compound
Rab3a = target: T3, Rab3a; assay: as above; assay type: cell-based; conditions: HEK293T cells, mock or RINL co-expression, labelled compound
Rab22 [2] = target: T4, Rab22; assay: as above; assay type: cell-based; parameters: gene RAB22A; myc-tagged in HEK293T (cell assay); conditions: HEK293T cells, 4 h 32Pi; mock or GEF co-expression; labelled compound
Rab31 [3] = target: T5, Rab31; assay: as above; assay type: cell-based; parameters: myc-tagged in HEK293T (cell assay); conditions: HEK293T cells, 4 h 32Pi; mock or GEF co-expression; labelled compound
Rab11a = target: T6, Rab11a; assay: as above; assay type: cell-based; conditions: HEK293T cells, mock or RINL co-expression, labelled compound
Rab31 [4] = target: T5, Rab31; assay: […]GTPgammaS filter binding time course; parameters: GST fusion from E. coli (in vitro); myc-tagged in HEK293T (cell assay); conditions: 1 µM [35S]GTPgammaS, 30 °C; with or without FLAG-RINL or Rabex-5; labelled compound
Rab21 [5] = target: T1, Rab21; assay: […]GTPgammaS filter binding time course; parameters: GST fusion from E. coli (in vitro); myc-tagged in HEK293T (cell assay); conditions: 1 µM [35S]GTPgammaS, 30 °C; with or without FLAG-RINL or Rabex-5; labelled compound
Rab22 [6] = target: T4, Rab22; assay: […]GTPgammaS filter binding time course; parameters: gene RAB22A; GST fusion from E. coli (in vitro); myc-tagged in HEK293T (cell assay); conditions: 1 µM [35S]GTPgammaS, 30 °C; with or without FLAG-RINL or Rabex-5; labelled compound
[7] = target: the molecule itself; assay: not stated; data not shown; tetramers composed of anti-parallel linkages of two parallel dimers

| Molecule | 32Pi metabolic labelling, anti-myc immunoprecipitation, TLC of bound nucleotides (Rab21 [1]) | 32Pi metabolic labelling, anti-myc immunoprecipitation, TLC of bound nucleotides (Rab7a) | 32Pi metabolic labelling, anti-myc immunoprecipitation, TLC of bound nucleotides (Rab5b) | 32Pi metabolic labelling, anti-myc immunoprecipitation, TLC of bound nucleotides (Rab3a) | 32Pi metabolic labelling, anti-myc immunoprecipitation, TLC of bound nucleotides (Rab22 [2]) | 32Pi metabolic labelling, anti-myc immunoprecipitation, TLC of bound nucleotides (Rab31 [3]) | 32Pi metabolic labelling, anti-myc immunoprecipitation, TLC of bound nucleotides (Rab11a) | [35S]GTPgammaS filter binding time course (Rab31 [4]) | [35S]GTPgammaS filter binding time course (Rab21 [5]) | [35S]GTPgammaS filter binding time course (Rab22 [6]) | stoichiometry N [7] |
| --- | --- | --- | --- | --- | --- | --- | --- | --- | --- | --- | --- |
| Nc1nc2c(ncn2[C@@H]2O[C@H](COP(=O)(O)OP(=O)(O)O)[C@@H](O)[C@H]2O)c(=O)[nH]1 [GDP] | The radioactivity of GTP and GDP was quantified | The radioactivity of GTP and GDP was quantified | The radioactivity of GTP and GDP was quantified | The radioactivity of GTP and GDP was quantified | The radioactivity of GTP and GDP was quantified | The radioactivity of GTP and GDP was quantified | The radioactivity of GTP and GDP was quantified |  |  |  |  |
| Nc1nc2c(ncn2[C@@H]2O[C@H](COP(=O)(O)OP(=O)(O)OP(=O)(O)O)[C@@H](O)[C@H]2O)c(=O)[nH]1 [GTP] | RINL significantly increased GTP-Rab21, GTP-Rab22, and GTP-Rab31 formation |  | Rab5b was present in a GTP-bound form in mock-transfected cells | The percentages (%) of each GTP-bound Rab member in the metabolically radiolabeled cells are shown | RINL significantly increased GTP-Rab21, GTP-Rab22, and GTP-Rab31 formation | RINL significantly increased GTP-Rab21, GTP-Rab22, and GTP-Rab31 formation |  |  |  |  |  |
| Nc1nc2c(ncn2[C@@H]2O[C@H](COP(=O)(O)OP(=O)(O)OP(O)(O)=S)[C@@H](O)[C@H]2O)c(=O)[nH]1 [GTPgammaS] |  |  |  |  |  |  |  | RINL accelerated GTPgammaS binding to Rab22 and Rab31 | Rabex-5 strongly, as opposed to RINL, accelerated GTPgammaS binding to Rab21 | RINL accelerated GTPgammaS binding to Rab22 and Rab31 |  |
| B1 |  |  |  |  |  |  |  |  |  |  | 4 |
